Results as given in US20060293346A1, “Fungicidal mixtures” (priority 2003, published 2006).

Tested on: Plasmopara viticola
Assay: Activity against peronospora of grapevines caused by Plasmopara viticola (protective spray of potted vines, cultivar Riesling)
Format: in vivo
Details: individual active compound, untreated control 84% infection
Experimental: The active compounds, separately or jointly, were prepared as a stock solution comprising 0.25% by weight of active compound in acetone or DMSO. 1% by weight of the emulsifier Uniperol® EL (wetting agent having emulsifying and dispersant action based on ethoxylated alkylphenols) was added to this solution, and the mixture was diluted with water to the desired concentration.
Use Example—Activity Against peronospora of Gravevines Caused by Plasmopara viticola
Leaves of potted vines of the cultivar “Riesling” were sprayed to runoff point with an aqueous suspension having the concentration of active compound stated below. The next day, the undersides of the leaves were inoculated with an aqueous zoospore suspension of Plasmopara viticola. The grapevines were then initially placed in a water-vapor-saturated chamber at 24° C. for 48 hours and then in a greenhouse at 20-30° C. for 5 days. After this period of time, the plants were again placed in a humid chamber for 16 hours to promote sporangiophore eruption. The extent of the development of the disease on the undersides of the leaves was then determined visually.
The visually determined percentages of infected leaf areas were converted into efficacies in % of the untreated control:
The efficacy (E) is calculated as follows using Abbot's formula: E=(1−α/β)·100 • α corresponds to the fungicidal infection of the treated plants in % and • β corresponds to the fungicidal infection of the untreated (control) plants in %
An efficacy of 0 means that the infection level of the treated plants corresponds to that of the untreated control plants; an efficacy of 100 means that the treated plants were not infected.
The expected efficacies of combinations of active compounds were determined using Colby's formula (Colby, S. R. “Calculating synergistic and antagonistic responses of herbicide combinations”, Weeds, 15, pp. 20-22, 1967) and compared with the observed efficacies.
Colby's Formula: E=x+y−x·y/100 • E expected efficacy, expressed in % of the untreated control, when using the mixture of the active compounds A and B at the concentrations a and b • x efficacy, expressed in % of the untreated control, when using the active compound A at the concentration a • y efficacy, expressed in % of the untreated control, when using the active compound B at the concentration b

[1] = 4 ppm in the spray liquor, vines Riesling

Row | Structure (SMILES) | Efficacy in % of the untreated control (1 ppm in the spray liquor (cell prints 161 = 16 and 1)) [%] | Efficacy in % of the untreated control (16 ppm in the spray liquor (cell prints 161 = 16 and 1)) [%] | Efficacy in % of the untreated control [1] [%]
1 | Fc1ccc(Oc2ccnc3cc(Cl)cc(Cl)c23)cc1 [II (quinoxyfen), 5,7-dichloro-4-(4-fluorophenoxy)quinoline] | 0 | 16 | –
2 | C[C@H](Nc1c(-c2c(F)cc(F)cc2F)c(Cl)nc2ncnn12)C(F)(F)F [B] | – | – | 52
3 | CC1CCN(c2c(-c3c(F)cccc3Cl)c(Cl)nc3ncnn23)CC1 [A] | – | – | 16
4 | CC1CCN(c2c(-c3c(F)cc(F)cc3F)c(Cl)nc3ncnn23)CC1 [I, 5-chloro-7-(4-methylpiperidin-1-yl)-6-(2,4,6-trifluorophenyl)-[1,2,4]triazolo[1,5-a]pyrimidine] | – | – | 52
